In one test the target is T1, GALR2 receptor (Homo sapiens, UniProt O43603).
T1 construct: expressed in transfected cells; host or cells: SH-SY5Y human neuroblastoma cells
T1 sequence (O43603 1-387): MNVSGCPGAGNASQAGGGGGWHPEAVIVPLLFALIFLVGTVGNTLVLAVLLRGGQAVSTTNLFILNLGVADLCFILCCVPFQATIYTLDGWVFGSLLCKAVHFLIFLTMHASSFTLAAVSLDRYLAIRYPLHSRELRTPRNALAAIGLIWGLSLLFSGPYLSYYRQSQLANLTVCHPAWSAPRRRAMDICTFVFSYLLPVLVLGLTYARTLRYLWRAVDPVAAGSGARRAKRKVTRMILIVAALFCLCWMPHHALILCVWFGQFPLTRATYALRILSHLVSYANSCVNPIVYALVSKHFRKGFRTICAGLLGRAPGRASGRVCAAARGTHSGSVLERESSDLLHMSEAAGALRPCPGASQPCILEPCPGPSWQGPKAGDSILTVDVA
As to the kind of experiment: Microphysiometry, extracellular acidification rate, SY5Y cells expressing GALR2. The following applies: human neuroblastoma cells SY5Y expressing GALR2; alarin 100 nM. The test is classed as cell-based.

In test [1] the test system is galanin receptors. Kind of test: Receptor binding assay, displacement of radiolabeled GAL from membrane preparations. The following applies: binding assays and functional microphysiometry, 50 pM [125I]GAL. How it is done: Membrane preparations and radioligand binding assays were performed according to Berger et al. (Berger et al., 2002). Displacement of radiolabeled GAL binding to membrane preparations (15 μg) was carried out in duplicates in a total volume of 120 μl of binding buffer containing 50 pM [125I]GAL (2,000 Ci/mmol; Amersham Pharmacia Biotech (Little Chalfont, UK) and different concentrations of synthetic murine alarin (1-25-amide) and alarin (3-25-amide).

Test [2] relates to galanin receptors. As to the kind of experiment: Microphysiometry on galanin receptor expressing cells, receptor activation. The class given is cell-based, human. The following applies: binding assays and microphysiometry on galanin receptor expressing cells. The method, then:
After reaching confluency the cells are harvested and seeded into 3.0 μm pore transwells (Corning Costar) held in 12 well plates one day before the experiment. The cells are allowed to settle down in the culture medium and cultured overnight in serum-free growth-medium. The ECAR of cells is determined by using a Cytosensor Microphysiometer (Molecular Devices). A capsule spacer and a capsule insert are assembled in the transwells, transferred into a sensor chamber and kept in DMEM without sodium bicarbonate throughout the entire experiment at 37° C. The running medium is pumped through each sensor chamber at 50 μl min^−1. A typical pumping cycle of 120 s consists of a flow period of 90 s, followed by a flow-off period of 30 s. During flow-off periods, protons released from the cells accumulate in the sensor chamber, and the rate of proton release is quantified by fitting the sensor data to a straight line with the least-squares fit to the slope of the pH profile. Agonists or other agents are diluted into running medium and perfused through a second fluid path. […]
SH-SY5Y/GalR1 and SH-SY5Y/GalR2 cells (Berger 2004) were seeded into 3.0-μM pore size Transwells (Corning Costar, Cambridge, Mass., USA). The extracellular acidification rate was determined using a cytosensor microphysiometer (Molecular Devices, Ismanning, Germany) as previously reported (Lang et al., 2001).

A further test deals with CD-1 mouse skin. As to the kind of experiment: Inflammatory oedema formation (plasma extravasation) in mouse dorsal skin. The class given is in vivo. How it is done: Experiments involving mice were carried out under the Animals (Scientific Procedures) Act, 1986. Normal female CD-1 mice (22-27 g, 8-12 weeks) were obtained from Charles River, U.K. All mice were maintained on normal diet, with free access to food and water, in a climatically controlled environment. Animals were anaesthetized with urethane (25% w v-1; 2.5 g kg-1 i.p.) and the dorsal skin was shaved. Injection sites were chosen according to a randomized site pattern on the dorsal skin of the anaesthetized mouse. Agents were from Sigma, Poole, U.K., unless specified. Alarin (1-25)-amide (murine) alarin (3-32)-amide (murine) were custom synthesized by NeoMPS Inc. (Strasbourg, France). All peptides were dissolved in distilled water. The stock solutions (10 nM) were stored at −20° C. and further diluted in Tyrode's solution (137 mM NaCl, 2.7 mM KCl, 0.5 mM MgCl2, 0.4 mM NaH2PO4, 11.9 mM NaHCO3, 5.6 mM glucose) just prior use.
Plasma extravasation was used as an index of inflammatory oedema formation and measured as previously described (Cao et al, 1999). Briefly, test agents were diluted in Tyrode's solution and stored on ice. […] The amount of plasma extravasated (μl g-1 tissue) was calculated by comparing the amount of radioactivity in each skin site with that in 100 μl plasma from the same animal.

Another test concerns CNS. As to the kind of experiment: Functional assays in the CNS with murine alarin peptides. The test is classed as in vivo, mice (C57Bl/6). The conditions noted are these: amidated synthetic murine peptides 1-25 and 3-25. The method, then: (§1) Intact adult male mice (C57Bl/6) were treated by a single injection into the lateral ventricles with either artificial cerebrospinal fluid (aCSF), alarin 1-25 (A1), alarin 3-25 (A3). Each treatment was given in an equimolar dose of 5 nmol. Body weight and food weight were measured at 1 hr, 2 hr, and 24 hr post injection. (Shown here as percent change in body weight from baseline).
(§2) Intact adult male mice (C57Bl/6) were treated by a single injection into the lateral ventricles with either artificial cerebrospinal fluid (aCSF), alarin 1-25 (A1), alarin 3-25 (A3). Each treatment was given in an equimolar dose of 5 nmol. Body weight and food weight were measured at 1 hr, 2 hr, and 24 hr post injection. (Shown here as grams of food consumed).
(§3) Intact adult male mice (C57Bl/6) were treated by a single injection into the lateral ventricles with either artificial cerebrospinal fluid (aCSF), alarin 1-25 (A1), alarin 3-25 (A3). Each treatment was given in an equimolar dose of 5 nmol. Blood was collected 30 min after injection and serum was assayed for LH content. (LH levels shown here in ng/ml).

A short description of test [3]: Body weight after injection into the lateral ventricles. The class given is in vivo, mice (C57Bl/6). The conditions noted are these: 5 nmol, single injection into lateral ventricles, one hour after injection, adult male mice. The method, then: as §1
The nature of test [4]: Food intake after injection into the lateral ventricles. The test is classed as in vivo, mice (C57Bl/6). The following applies: 5 nmol, single injection into lateral ventricles, one hour after injection, adult male mice. How it is done: as §2
Test [5] is described as follows: Luteinising hormone (LH) level after injection into the lateral ventricles. The test is classed as in vivo, mice (C57Bl/6). The conditions noted are these: 5 nmol, single injection into lateral ventricles, blood collected 30 min after injection, adult male mice. How it is done: as §3

Ends that are not written are not given here.

As for “APAHRSSTFPKWVTKTERGRQPLRS (listed as Homo sapiens) [alarin, novel neuropeptide, splice variant of GALP mRNA]”, the “change in extracellular acidification” value in the test with GALR2 receptor is reported as “No change”. In addition, the “binding to galanin receptors” value in the test on galanin receptors [1] is “can be excluded”. In the test with galanin receptors [2], the “activation of galanin receptors” value is given as “not able to activate these receptors”. Moreover, the “inhibition of inflammatory oedema” value in the test with CD-1 mouse skin (co-injection with substance P (300 pmol) and CGRP (10 pmol), intradermal, murine dorsal skin) was “inhibition of inflammatory oedema”.

As for “Alarin 1-25: amidated synthetic murine alarin peptide 1-25 (APAHRSSPFPPRPTRAGRETQLLRS-NH2)”, the “potency in inhibition of oedema formation in the skin, alarin 1-25 compared with alarin 3-25” value in the test with CD-1 mouse skin (amidated synthetic murine peptides) was “more potent”. The “activity in the CNS” value in the test on CNS is “only alarin 3-25 was active in the CNS”.

For the substance “Alarin 3-25: amidated synthetic murine alarin peptide 3-25 (AHRSSPFPPRPTRAGRETQLLRS-NH2)”, the body weight entry in test [3] is recorded as “significant reduction”. In addition, in test [4], the food intake entry was “significant decrease”. The “plasma LH levels” value in test [5] is listed as “significant increase”. The “activity in the CNS” value in the test on CNS is “active”.

The record behind these values is patent US7928187B2, “Neuropeptide alarin” (Austria Wirtschaftsservice Gesellschaft mit beschrankter …, priority 2005, dated 2011).
